From patent US20250332112A1, “IONIZABLE CATIONIC LIPIDS FOR LIPID NANOPARTICLES” (GENEVANT SCIENCES GMBH, priority 2022, published 2025)

Assays:
[1] = Parent ionizable lipid remaining in liver at 24 h after EGFP mRNA LNP (LC-MS); format: in vivo; settings: 24 h after IV 0.5 mg/kg EGFP mRNA LNP, female BALB/c mice (n = 4)
Method: Liver tissues were treated with PBS and homogenized with a FastPrep machine, 3 cycles of 5 m/s×15 s. Homogenates from the PBS-treated control animals was pooled and used for standard curve preparation. Samples were extracted into a deep well plate with 250 μL of an internal suitability standard. Plates were centrifuged for 15 min at 4° C. and 2000 rpm. Analysis was performed using an Agilent 6520 QTOF coupled to an Agilent 1290 UHPLC, using reverse-phase LC separation. Quantitation of the ionizable lipid was by MS/MS against a calibration curve spiked into appropriately matched blank matrix. Calibration used a similar class of synthetic lipid as internal standard.
At 24 h post-dose, some treatment groups reported lower levels of novel ionizable lipid in mouse liver compared to the benchmark (Tables 28-31).

[2] = tested on: EGFP expression in the liver; assay: EGFP expression in liver after intravenous EGFP mRNA LNP (ELISA); settings: 0.5 mg/kg IV, 24 h post-IV administration, BALB/c mice (n = 4)
Method: LNP formulations encapsulating enhanced green fluorescent protein mRNA were injected intravenously at 0.5 mg/kg to female BALB/c mice (6-8 weeks old). On day of injection, the LNP stocks were filtered and diluted to the required dosing concentration with phosphate buffered saline. At 24 hours post-administration, animals were anaesthetized with a lethal dosage of ketamine/xylazine. Liver samples (left lateral lobe) were collected, weighed, and flash frozen in liquid nitrogen. Liver samples were stored in FastPrep® tubes at −80° C. until analyzed for EGFP expression.
Liver homogenates were prepared in cell extraction buffer, diluted, and analyzed for EGFP protein levels using ELISA, according to manufacturer's instructions (Abcam, GFP ELISA Kit).

[3] = Particle characteristics of LNPs containing EGFP mRNA and novel ionizable lipids; format: physicochemical; settings: EGFP mRNA LNP 1.6:54.6:32.8:10.9
Method: The lipid solution contains 4 components: a PEG-conjugated lipid, an ionizable lipid, cholesterol, and a phospholipid (e.g., DSPC). Lipid stocks were prepared using the lipid identities and molar ratios as described, to achieve a total concentration of ˜7 mg/mL in 100% ethanol. […] Equal volumes of the lipid and nucleic acid solutions were blended at a flow rate of 400 mL/min through a T-connector, and diluted with ˜4 volumes of PBS, pH 7.4. Formulations were placed in Slide-A-Lyzer dialysis units (MWCO 10,000) and dialyzed overnight against 10 mM Tris, 500 mM NaCl, pH 8 buffer. Following dialysis, the formulations were concentrated to ˜0.6 mg/mL using VivaSpin concentrator units (MWCO 100,000) and dialyzed overnight against 5 mM Tris, 10% sucrose, pH 8 buffer. Formulations were filtered through a 0.2 μm syringe filter (PES membrane). Nucleic acid concentration was determined by the RiboGreen assay. Particle size and polydispersity were determined using a Malvern Nano Series Zetasizer.
LNP formulations containing novel ionizable lipids all produced stable particles with high encapsulation efficiency (Tables 20-23).

Structure (SMILES)	Parent ionizable lipid remaining in liver, Average ([1]; Table 29)	EGFP ([2]; Table 25)	Final Product % EE ([3]; Table 21)	Final Product PDI ([3]; Table 21)	Final Product Z-avg ([3]; Table 21)	Parent ionizable lipid remaining in liver, Average ([1]; Table 30)	EGFP ([2]; Table 26)	Final Product % EE ([3]; Table 22)	Final Product PDI ([3]; Table 22)	Final Product Z-avg ([3]; Table 22)
CCCCCC/C=C\CCON(C(=O)CCCCN(C)C)C(CCCCCCCCCC)CCCCCCC(=O)OCCC(CCCCCCC)CCCCCCC (stereo not drawn) [Compound 98, 3-Heptyldecyl (Z)-8-(N-(dec-3-en-1-yloxy)-5-(dimethylamino)pentanamido)octadecanoate]	30.21 nmol/g liver	9.76E+05 pg/g liver	99%	0.06	84 nm	–	–	–	–	–
CCCCCCCCCCON(C(=O)CCCCN(C)C)C(CCCCCCCCCC)CCCCCCC(=O)OCCC(CCCCCCC)CCCCCCC (stereo not drawn) [Compound 99, 3-Heptyldecyl 8-(N-(decyloxy)-5-(dimethylamino)pentanamido)octadecanoate]	19.93 nmol/g liver	1.05E+06 pg/g liver	97%	0.04	86 nm	–	–	–	–	–
CCCCCC/C=C\CCON(C(=O)CCCN(C)C)C(CCCCCCCCCC)CCCCCCC(=O)OCCC(CCCCC)CCCCC (stereo not drawn) [Compound 100, 3-Pentyloctyl (Z)-8-(N-(dec-3-en-1-yloxy)-4-(dimethylamino)butanamido)octadecanoate]	5.03 nmol/g liver	5.98E+05 pg/g liver	98%	0.08	72 nm	–	–	–	–	–
CCCCCCCCCCN(C(=O)CCCN(C)C)C(CCCCCCCCC)CCCCC(F)(F)C(=O)OCC(CCCCCC)CCCCCCCC (stereo not drawn) [Compound 102, 2-Hexyldecyl 7-(N-decyl-4-(dimethylamino)butanamido)-2,2-difluorohexadecanoate]	5.72 nmol/g liver	1.94E+05 pg/g liver	98%	0.09	67 nm	–	–	–	–	–
CCCCCCCCCCN(C(=O)CCCN(C)C)C(CCCCCCCCC)CCCCC(F)(F)C(=O)OCCC(CCCCCC)CCCCCC (stereo not drawn) [Compound 103, 3-Hexylnonyl 7-(N-decyl-4-(dimethylamino)butanamido)-2,2-difluorohexadecanoate]	0.00 nmol/g liver	9.54E+04 pg/g liver	98%	0.09	67 nm	–	–	–	–	–
CCCCCCCCCCN(C(=O)CCCN(C)C)C(CCCCCCCCC)CCCCCCC(F)(F)C(=O)OC(CCCCCCCC)CCCCCCCC (stereo not drawn) [Compound 104, Heptadecan-9-yl 9-(N-decyl-4-(dimethylamino)butanamido)-2,2-difluorooctadecanoate]	–	–	–	–	–	51.14 nmol/g liver	7.36E+06 pg/g liver	99%	0.07	74 nm
CCCCCCCCCCC(CCCCCCC(=O)OCCC(CCCCCC)CCCCCC)N(CCCCCCCCCC)C(=O)OCCCN(C)C (stereo not drawn) [Compound 105, 3-hexylnonyl 8-(decyl((3-(dimethylamino)propoxy)carbonyl)-amino) octadecanoate]	–	–	–	–	–	18.96 nmol/g liver	1.86E+07 pg/g liver	97%	0.08	82 nm
CCCCCCCCCCON(C(=O)CCCN(C)C)C(CCCCCCCCCC)CCCCCCC(F)(F)C(=O)OC(CCCCCCC)CCCCCCC (stereo not drawn) [Compound 106, Pentadecan-8-yl 9-(N-(decyloxy)-4-(dimethylamino)butanamido)-2,2-difluoro-nonadecanoate]	–	–	–	–	–	56.97 nmol/g liver	2.45E+07 pg/g liver	95%	0.13	73 nm
CCCCCCCCCCC(CCCCCCC(=O)OCC(CCCCCC)CCCCCCCC)N(CCCCCCCCCC)C(=O)CCN(C)C (stereo not drawn) [Compound 107, 2-Hexyldecyl 8-(N-decyl-3-(dimethylamino)propanamido)octadecanoate]	–	–	–	–	–	28.74 nmol/g liver	3.66E+07 pg/g liver	98%	0.06	76 nm
